This experiment relates to C. trachomatis serovar LGV-L2. In words: Inhibition of infectious Chlamydia progenies (C. trachomatis infectivity, reinfection of HeLa cells, IFU count). It counts as cell-based. The note with it: infected HeLa cells, MOI 0.3, compound added 1 hpi, 44-48 h, relative to DMSO-treated control; for inhibition at 2.5 µM: 2.5 uM compound; for inhibition at 10 µM: 10 uM compound; for inhibition at 50 µM: 50 uM compound. On the procedure: Cell Culture, C. trachomatis Infections, and Determination of C. trachomatis Infectivity.
HeLa cells were infected with C. trachomatis serovar LGV-L2 at an MOI of 0.3. At 1 hpi, RPMI media containing the different dilutions of the tested compounds in DMSO were added. The different compounds were dissolved to 20 mM in DMSO and were then diluted with RPMI media to be added at 2.5 to 100 μM. After 44-48 h incubation, the cells were osmotically lysed by the addition of cold sterile distilled water to release infectious EB progeny. 5×SPG was added to equalize the osmotic pressure to a 1×SPG isotonic condition. An equal amount of HBSS (Hanks balanced salt solution) (Gibco/Invitrogen) was added to the lysate (yielding a 1:1 dilution) and 10-fold serial dilutions of the resulting mixture was used to infect fresh HeLa cells. At 1 hpi, the inoculum was replaced with RPMI media and the infection allowed to progress for 44-48 hours before fixation and staining. Fixation was performed by adding methanol for 5 minutes and the cells were subsequently washed with phosphate buffered saline (PBS). The chlamydial inclusions were stained by a primary rabbit anti-Chlamydia antibody (generated in-house) and a secondary donkey anti-rabbit FITC-labelled antibody (Jackson ImmunoResearch). The DNA of the cells and Chlamydia was stained by the addition of DAPI. The stained cells were analyzed by an ArrayScan automated scanner (ArrayScan VTI HCS, Thermo Scientific). Data were presented as the relative numbers of IFUs in treated infections compared to the numbers of IFUs in DMSO-treated control infections.
The compounds of Examples 1-33 were tested for inhibition of infectious Chlamydia progenies at concentrations of 2.5 μM, 10 μM, 50 μM and 100 μM. In this document μM stands for micromolar. The compounds of the present disclosure were considered to have antibacterial activity if they provided 50% or more inhibition of infectious Chlamydia progenies using at least one of the tested concentrations in Table 1.

`COc1c(Cc2cccc3ccccc23)cc(=O)n2c1SC[C@H]2C(=O)Nc1ccccc1` [Example 1, {(3R)-7-Methoxy-6-[(1-naphthyl)methyl]-4-oxo-1-thia-3a-aza-3-indanyl}anilinoformaldehyde]: the inhibition at 2.5 µM is 100%.

`COc1c(Cc2cccc3ccccc23)cc(=O)n2c1SC[C@H]2C(=O)Nc1ccc(C)cc1` [Example 2, {(3R)-7-Methoxy-6-[(1-naphthyl)methyl]-4-oxo-1-thia-3a-aza-3-indanyl}(p-toluidino)formaldehyde] came in with an inhibition at 2.5 µM of 96% and an inhibition at 10 µM of 100%.

Regarding `COc1c(Cc2cccc(C)c2C)cc(=O)n2c1SC[C@H]2C(=O)Nc1ccccc1` [Example 3, {(3R)-7-Methoxy-4-oxo-6-[(2,3-xylyl)methyl]-1-thia-3a-aza-3-indanyl}anilinoformaldehyde], the inhibition at 2.5 µM turned out to be 95% and the inhibition at 10 µM was 100%.

`COc1c(Cc2cccc(C)c2C)cc(=O)n2c1SC[C@H]2C(=O)Nc1cc(C)cc(F)c1` [Example 4, {(3R)-7-Methoxy-4-oxo-6-[(2,3-xylyl)methyl]-1-thia-3a-aza-3-indanyl}(3-fluoro-5-toluidino)formaldehyde] returned an inhibition at 2.5 µM of 99% and an inhibition at 10 µM of 100%.

`COc1c(Cc2cccc(C)c2C)cc(=O)n2c1SC[C@H]2C(=O)Nc1ccc(C)cc1` [Example 5, {(3R)-7-Methoxy-4-oxo-6-[(2,3-xylyl)methyl]-1-thia-3a-aza-3-indanyl}(p-toluidino)formaldehyde] displayed an inhibition at 2.5 µM of 100% and an inhibition at 10 µM of 100%.

In turn, `COc1c(Cc2cccc3ccccc23)c(N)c(=O)n2c1SC[C@H]2C(=O)Nc1ccccc1` [Example 6, {(3R)-5-Amino-7-methoxy-6-[(1-naphthyl)methyl]-4-oxo-1-thia-3a-aza-3-indanyl}anilinoformaldehyde] returned an inhibition at 2.5 µM of 63% and an inhibition at 10 µM of 100%.

`COc1c(Cc2cccc(C)c2C)c(N)c(=O)n2c1SC[C@H]2C(=O)Nc1ccc(C)cc1` [Example 7, {(3R)-5-Amino-7-methoxy-4-oxo-6-[(2,3-xylyl)methyl]-1-thia-3a-aza-3-indanyl}(p-toluidino)formaldehyde] showed an inhibition at 2.5 µM of 90% and an inhibition at 10 µM of 100%.

As for `COc1c(Cc2cccc(C)c2C)c(N)c(=O)n2c1SC[C@H]2C(=O)Nc1cc(C)cc(F)c1` [Example 8, {(3R)-5-Amino-7-methoxy-4-oxo-6-[(2,3-xylyl)methyl]-1-thia-3a-aza-3-indanyl}(3-fluoro-5-toluidino)formaldehyde], the inhibition at 2.5 µM came to 87% and the inhibition at 10 µM was determined as 100%.

The compound `COc1c(Cc2cccc3ccccc23)c(N)c(=O)n2c1SC[C@H]2C(=O)Nc1ccc(C)cc1` [Example 9, {(3R)-5-Amino-7-methoxy-6-[(1-naphthyl)methyl]-4-oxo-1-thia-3a-aza-3-indanyl}(p-toluidino)formaldehyde] gave an inhibition at 2.5 µM of 89% and an inhibition at 10 µM of 100%.

`O=C(Nc1ccccc1)[C@@H]1CSc2c(O)c(Cc3cccc4ccccc34)cc(=O)n21` [Example 10, {(3R)-7-Hydroxy-6-[(1-naphthyl)methyl]-4-oxo-1-thia-3a-aza-3-indanyl}anilinoformaldehyde]: at 2.5 µM the inhibition was 88% and the inhibition at 10 µM came to 98%.

The compound `O=C(Nc1ccccc1)[C@@H]1CSc2c(Cl)c(Cc3cccc4ccccc34)cc(=O)n21` [Example 11, {(3R)-7-Chloro-6-[(1-naphthyl)methyl]-4-oxo-1-thia-3a-aza-3-indanyl}anilinoformaldehyde] came in with an inhibition at 2.5 µM of 97% and an inhibition at 10 µM of 100%.

Consider `O=C(Nc1ccccc1)[C@@H]1CSc2c(C(F)(F)F)c(Cc3cccc4ccccc34)cc(=O)n21` [Example 12, {(3R)-6-[(1-Naphthyl)methyl]-4-oxo-7-(trifluoromethyl)-1-thia-3a-aza-3-indanyl}anilinoformaldehyde], for which at 2.5 µM the inhibition was 98% and the inhibition at 10 µM stood at 100%.

Compound `COc1c(Cc2cccc(C)c2C)c(N)c(=O)n2c1SC[C@H]2C(=O)Nc1ccccc1` [Example 13, {(3R)-5-Amino-7-methoxy-4-oxo-6-[(2,3-xylyl)methyl]-1-thia-3a-aza-3-indanyl}anilinoformaldehyde] came in with an inhibition at 2.5 µM of 75% and an inhibition at 10 µM of 100%.

Turning to `COc1c(Cc2cccc(C)c2C)c(N)c(=O)n2c1SC[C@H]2c1nc(-c2ccccc2)no1` [Example 14, (3R)-5-Amino-7-methoxy-3-(3-phenyl-1,2,4-oxadiazol-5-yl)-6-[(2,3-xylyl)methyl]-1-thia-3a-aza-4-indanone], the inhibition at 2.5 µM was found to be 76% and the inhibition at 10 µM turned out to be 100%.

The compound `COc1c(Cc2cccc(C)c2C)cc(=O)n2c1SC[C@H]2c1nnc(-c2ccccc2)o1` [Example 15, (3R)-7-Methoxy-3-(5-phenyl-1,3,4-oxadiazol-2-yl)-6-[(2,3-xylyl)methyl]-1-thia-3a-aza-4-indanone] yielded an inhibition at 2.5 µM of 84% and an inhibition at 10 µM of 100%.

`COc1c(Cc2cccc(C)c2C)cc(=O)n2c1SC[C@H]2c1nc(-c2ccccc2)no1` [Example 16, (3R)-7-Methoxy-3-(3-phenyl-1,2,4-oxadiazol-5-yl)-6-[(2,3-xylyl)methyl]-1-thia-3a-aza-4-indanone] came in with an inhibition at 2.5 µM of 81% and an inhibition at 10 µM of 100%.

`COc1c(COc2cccc(C)c2C)cc(=O)n2c1SC[C@H]2C(=O)Nc1ccc(Cl)cn1` [Example 17, {(3R)-7-Methoxy-4-oxo-6-[(2,3-xylyloxy)methyl]-1-thia-3a-aza-3-indanyl}(5-chloro-2-pyridylamino)formaldehyde] returned an inhibition at 2.5 µM of 79% and an inhibition at 10 µM of 100%.

As to `Cc1cccc(OCc2cc(=O)n3c(c2C2CC2)SCC3C(=O)Nc2ccccc2)c1C` (stereo not drawn) [Example 19, Anilino{7-cyclopropyl-4-oxo-6-[(2,3-xylylyloxy)methyl]-1-thia-3a-aza-3-indanyl}formaldehyde], testing at 2.5 µM gave an inhibition of 100%.

With `Cc1ccc(NC(=O)[C@@H]2CSc3c(C4CC4)c(Cc4cccc(C)c4C)cc(=O)n32)cc1` [Example 20, {(3R)-7-Cyclopropyl-4-oxo-6-[(2,3-xylyl)methyl]-1-thia-3a-aza-3-indanyl}(p-toluidino)formaldehyde], at 2.5 µM the inhibition was 99%.

Consider `Cc1ccc(NC(=O)[C@@H]2CSc3c(C4CC4)c(Cc4ccc(Cl)cc4)cc(=O)n32)cc1` [Example 21, {(3R)-6-[(p-Chlorophenyl)methyl]-7-cyclopropyl-4-oxo-1-thia-3a-aza-3-indanyl}(p-toluidino)formaldehyde], for which the inhibition at 2.5 µM was 99%.

Compound `O=c1cc(Cc2cccc3ccccc23)c(C2CC2)c2n1[C@H](c1nc(-c3ccccc3)n[nH]1)CS2` [Example 22, (3R)-7-Cyclopropyl-6-[(1-naphthyl)methyl]-3-(5-phenyl-2H-1,2,4-triazol-3-yl)-1-thia-3a-aza-4-indanone] displayed an inhibition at 2.5 µM of 98% and an inhibition at 10 µM of 100%.

With `CC(C)Nc1c(Cc2cccc3ccccc23)cc(=O)n2c1SC[C@H]2C(=O)Nc1ccccc1` [Example 23, Anilino{7-(isopropylamino)-6-[(1-naphthyl)methyl]-4-oxo-1-thia-3a-aza-3-indanyl}formaldehyde], the inhibition at 10 µM came out at 98% and 50 µM produced 98% inhibition.

Consider `CN(C)c1c(Cc2cccc3ccccc23)cc(=O)n2c1SC[C@H]2C(=O)Nc1ccccc1` [Example 24, {(3R)-7-(Dimethylamino)-6-[(1-naphthyl)methyl]-4-oxo-1-thia-3a-aza-3-indanyl}anilinoformaldehyde], for which at 10 µM the inhibition was 98% and the inhibition at 50 µM is 99%.

Consider `CS(=O)(=O)Nc1c(Cc2cccc3ccccc23)cc(=O)n2c1SC[C@H]2C(=O)Nc1ccccc1` [Example 25, Anilino{7-(methylsulfonylamino)-6-[(1-naphthyl)methyl]-4-oxo-1-thia-3a-aza-3-indanyl}formaldehyde], for which 10 µM produced 97% inhibition and the inhibition at 50 µM was determined as 97%.

`CC(=O)Nc1c(Cc2cccc3ccccc23)cc(=O)n2c1SC[C@H]2C(=O)Nc1ccccc1` [Example 26, 1-{3-Anilinocarbonyl-6-[(1-naphthyl)methyl]-4-oxo-1-thia-3a-aza-7-indanylamino}-1-ethanone] had an inhibition at 10 µM of 54% and an inhibition at 50 µM of 87%.

In turn, `COC(=O)Nc1c(Cc2cccc3ccccc23)cc(=O)n2c1SC[C@H]2C(=O)Nc1ccccc1` [Example 27, {(3R)-7-(Methoxycarbonylamino)-6-[(1-naphthyl)methyl]-4-oxo-1-thia-3a-aza-3-indanyl}anilinoformaldehyde] gave an inhibition at 10 µM of 96% and an inhibition at 50 µM of 98%.

Broadly, the inhibition is the relative decrease from the control value, in per cent. Lower therefore signals a response near the control.

The values above are taken from patent US10294244B2, “2,3-dihydro-thiazolo[3,2-A]pyridin-5-one derivatives, intermediates thereof, and their use as antibacterial agents” (Quretech Bio AB, priority 2014, dated 2019).
